Test results reported in patent US5879716A, “Methods and compositions for topical delivery of benzoyl peroxide” (priority 1993, dated 1999).
Where two headings read alike, the source gives them in different places.

Assays:
[1] = cited from earlier work
[2] = Solubility of benzoyl peroxide; type: physicochemical
[3] = human skin specimens used within 7 to 10 days; cited from earlier work

O=C(OOC(=O)c1ccccc1)c1ccccc1 [Benzoyl peroxide, benzoyl peroxide]
solubility ([1]; alcohols): slightly soluble in alcohols | solubility ([1]; organic solvents): soluble in nearly all organic solvents | solubility ([1]; organic solvents, listed as benzoyl peroxide): limited solubility in most solvents | solubility ([1]; water): slightly soluble in water | solution concentration obtainable ([2]; acetone and isopropanol): up to 10 % by weight | solubility of the drug in the formulation ([2]; formulations F and G): very low solubility | solubility ([2]; water or normal saline solution): exceedingly low solubility | metabolism during skin absorption [3]: metabolized to benzoic acid and accumulated as such in the receptor fluid
